US20250161245A1, “A MIXTURE OF UREA, BIURET AND N-CONTAINING BY-PRODUCTS CREATED DURING BIURET PRODUCTION AS A DIETARY NON-PROTEIN NITROGEN-SOURCE FOR RUMINANTS AND USES THEREOF” (Yara International ASA, priority 2022, published 2025)

What was measured:
ruminal fluid [1] = test: in vitro batch culture incubations: VFA, ammonia-N, pH (Example 4); format: cell-based, Angus crossbred steers; conditions: corn silage-based diet
Method: In this example, an in vitro assay was performed using batch culture incubations, aiming to simulate rumen fermentation.
Two ruminally cannulated Angus crossbred steers (808.8±36.3 kg body weight) were used as ruminal fluid donors for the in vitro batch culture incubations. The steers were fed a corn silage and gin trash diet (70% and 30% on a dry matter basis, respectively) ad libitum at least 35 days before collecting ruminal fluid to perform the in vitro incubations. Each steer received a NPN-mixture equivalent to 100 g of urea per day comprised of an equal amount of N from the different NPN sources to adapt the rumen microbial community. Thus, each steer was fed daily 33 g of urea (46 wt. % N) or 37 g of a urea-biuret mixture according to the present disclosure (UB) comprising 41 wt. % N. These amounts were mixed in with the feed diet every two days.
The in vitro batch culture incubations were conducted as a randomized complete block design using 70 wt. % corn silage and 30 wt. % gin trash on a dry matter basis conserving the diet characteristics used during the animal adaptation period. The treatments were designed to be isonitrogenous (=having the same amount of dietary nitrogen) and equivalent to 1 wt. % of urea inclusion. The NPN treatments were consequently as follows: • Control without NPN-supplementation (“control”); • 100 wt % urea (Rumisan®) (“urea”); • 100 wt % of a urea/biuret mixture according to the present application (“UB”).
The in vitro incubations were conducted on three separate days (replicates). A representative sample of digesta was collected from different places in the rumen of ruminally cannulated steers and strained through 4 layers of cheesecloth, placed in pre-warmed thermos containers, and transported to the laboratory within 30 minutes after the collection. In the laboratory, the ruminal fluid from the two steers was maintained under constant CO2-flux and was combined in equal proportions. This combined ruminal fluid was mixed with McDougall's buffer (McDougall, 1948) with and without 0.077 g/liter of 10 wt. % ammonium sulfate enriched with ^15N in relation 1:4, and it was used as an inoculum. Two bottles of 500 ml fitted with a side arm and a rubber septum were incubated per treatment. The bottles contained 5.6 g of substrate dry matter and 400 ml of ^15N enriched inoculum, and were incubated for 24 hours at 39° C. with an agitation of 60 rpm to monitor gas production kinetics using an Ankom Gas Monitoring System from Ankom Technologies, Fairport, New York. Also, one 500-ml bottle without 15N enriched inoculum was incubated to determine the basal ^15N enrichment. At 12 hours of incubation, two samples of 10 ml of rumen fluid were collected from each bottle through the septa port using a 20-ml syringe. These samples were acidified by adding 10 μl of a 20 vol/vol % of H2SO4-solution to each 10-ml sample, and frozen at minus 20° C. until further analysis. At the end of the 24 hours incubation, the final pH was recorded, the bottles were placed on ice to prevent further microbial fermentation and two 10-ml samples were collected and acidified by adding 20 μl of a 20 vol/vol % of H2SO4-solution and were frozen at minus 20° C. until further analysis. The remaining fermentation content was thereafter agitated at 60 rpm for 30 seconds and divided into two subsamples. […]

ruminal fluid [2] = test: in vitro methane production, batch culture (Example 4); format: cell-based, Angus crossbred steers; conditions: corn silage-based diet, 24 hours incubation
Method: The amount of methane produced was determined by measuring total gas production and the contribution of methane to it. The production of gas was recorded using an Ankom Gas Monitoring System from Ankom Technologies. This system was adapted to 500 ml bottles during the entire fermentation process. The kinetics of the production was fitted to a Gompertz model to determine the rate of the total maximal gas production (M), fractional rate of gas produced (kf) and lag phase (L). A gas subsample was analyzed to measure methane concentration and calculate the total methane production during the fermentation. The concentration of methane was determined using a gas chromatograph Agilent 7820 GC from Agilent Technologies with flame ionization and a capillary column (Plot Fused Silica 25 m×0.32 mm, coating Molsieve 5A, Varian CP 7536 from Varian Inc.).

[3] = 12 hours of incubation, equivalent to 1 wt. % urea

NC(N)=O [Urea, urea]
Ammonia-N (ruminal fluid [1]; [3]): 2.74 mM | Total VFA (ruminal fluid [1]; [3]): 31.77 mM | Ammonia-N (ruminal fluid [1]; 24 hours of incubation): 6.55 mM | Total VFA (ruminal fluid [1]; 24 hours of incubation): 40.96 mM | pH (ruminal fluid [1]; 24 hours of incubation): 6.38 | methane production per g organic matter digested (ruminal fluid [2]): 6.86 mM/g OMd | methane production per g organic matter incubated (ruminal fluid [2]): 1.23 mM/g OMi
